The subject of data set [1] is S. aureus strain ATCC 29213. Briefly: Biofilm inhibition, crystal violet assay. The format is cell-based. The note with it: for biofilm inhibition activity (in words): 29213, 200 μM; for pIC50: Staphylococcus aureus, ATCC29213, S. aureus ATCC 29213. As to the method:
(§1) Given the potency of our lead compounds toward inhibiting MRSA biofilms, we next explored their activity against various other S. aureus strains. […] IC50 values were determined for each compound against each of the S. aureus strains.
(§2) Procedure to Determine the Inhibitory Effect of Test Compounds.
(§3) Inhibition assays were performed by taking an overnight culture of bacterial strain and subculturing it at an OD600 of 0.01 into the medium. Stock solutions of predetermined concentrations of the test compound were then made in the medium. These stock solutions were aliquoted (100 μL) into the wells of the 96-well PVC microtiter plate. Sample plates were then wrapped in GLAD Press n'Seal® followed by an incubation under stationary conditions for 24 h at 37° C. After incubation, the medium was discarded from the wells and the plates were washed thoroughly with water. Plates were then stained with 100 μL of 0.1% solution of crystal violet (CV) and then incubated at ambient temperature for 30 min. Plates were washed with water again and the remaining stain was solubilized with 200 μL of 95% ethanol. A sample of 125 μL of solubilized CV stain from each well was transferred to the corresponding wells of a polystyrene microtiter dish. Biofilm inhibition was quantitated by measuring the OD540 of each well in which a negative control lane wherein no biofilm was formed served as a background and was subtracted out.

For the next data set, the system named is MRSA. Briefly: Biofilm inhibition, crystal violet assay. The format is cell-based, methicillin-resistant S. aureus. As to conditions: for biofilm inhibition activity (in words) / inhibition at 200 µM / pIC50: MRSA; for inhibition at 200 µM / pIC50: Staphylococcus aureus; for inhibition at 200 µM: read-out: % Inhibition of biofilm formation; for pIC50: concentration that inhibits 50% of biofilm formation. As to the method: as §2, §3

The next data set relates to VRE. Briefly: Biofilm inhibition, crystal violet assay. It is filed as cell-based, vancomycin-resistant Enterococcus faecium. As to conditions: 200 μM. The protocol: as §2, §3
The next data set relates to MDRAB. Briefly: Biofilm inhibition, crystal violet assay. It is filed as cell-based, multi-drug resistant Acinetobacter baumannii. As to conditions: 200 μM. As to the method: as §2, §3
In data set [2] the test system is R. salexigens. Briefly: Biofilm inhibition, crystal violet assay. It is filed as cell-based, Rhodospirillum salexigens. The note with it: 200 μM. The protocol:
as §2, §3

In data set [3] the test system is red blood cell (difibrinated sheep blood). Briefly: Red blood cell hemolysis assay. As to conditions: up to the highest concentration tested (1.2 mM). The format is cell-based. As to the method:
This was assessed using a red blood cell hemolysis assay using difibrinated sheep blood.
Red Blood Cell Hemolysis Assay.
Hemolysis assays were performed on mechanically difibrinated sheep blood (Hemostat Labs: DSB100). 1.5 mL of blood was placed into a microcentrifuge tube and centrifuged at 10000 rpm for ten minutes. The supernatant was removed and then the cells were resuspended with 1 mL of phosphate-buffered saline (PBS). The suspension was centrifuged, the supernatant was removed and cells resuspended two more times. The final cell suspension was then diluted tenfold. Test compound solutions were made in PBS in small culture tubes and then added to aliquots of the tenfold suspension dilution. PBS alone was used as a negative control and as a zero hemolysis marker whereas a 1% Triton X sample was used as a positive control and the 100% lysis marker. Samples were then placed in an incubator at 37° C. while being shaken at 200 rpm for one hour. After one hour, the samples were transferred to microcentrifuge tubes and then centrifuged at 10000 rpm for ten minutes. The resulting supernatant was diluted by a factor of 40 in distilled water. The absorbance of the supernatant was measured with a UV spectrometer at a 540 nm wavelength.

Data set [4] relates to R. salexigens. The note with it: reported by Yamada et al.; cited from earlier work.
A further data set relates to E. coli. Briefly: Biofilm inhibition, crystal violet assay. The note with it: for inhibition at 200 µM / pIC50: Escherichia coli; for inhibition at 200 µM: read-out: % Inhibition of biofilm formation; for pIC50: concentration that inhibits 50% of biofilm formation. The format is cell-based. As to the method:
as §2, §3

A further data set deals with S. epidermidis. Briefly: Biofilm inhibition, crystal violet assay. The format is cell-based. As to conditions: 200 μM. As to the method: as §2, §3
Data set [5] relates to S. aureus strain ATCC 25923. Briefly: Biofilm inhibition, crystal violet assay. The format is cell-based. As to conditions: Staphylococcus aureus, ATCC25923; S. aureus ATCC 25923. As to the method: as §1, §2, §3
The test system of data set [6] is S. aureus strain ATCC 29740. Briefly: Biofilm inhibition, crystal violet assay. The format is cell-based. As to conditions: Staphylococcus aureus, ATCC29740; S. aureus ATCC 29740. As to the method:
as §1, §2, §3

pIC50: −log10 of the molar value.

As to `CC(C)CCC[C@@H](C)C1CCC2[C@@H]3CC=C4C[C@@H](OC(=O)N5CCc6ccccc65)CC[C@]4(C)[C@H]3CC[C@]12C` (stereo partly shown), the melting point (in general, the temperature, or range, at which the solid turns liquid) lay within 142 to 145 °C.
Still for that read-out and setting: the result for `CC(C)CCC[C@@H](C)C1CCC2[C@@H]3CC=C4C[C@@H](OC(=O)NCCc5ccc(N)cc5)CC[C@]4(C)[C@H]3CC[C@]12C` (stereo partly shown) reads 135 to 139 °C.
`COC1CC(C)CCC1C(C)C` (single isomer, unassigned; (-)) [(−)-menthol methyl ether, reference compound]: the “biofilm inhibition activity (in words)” value (in [1]; in the data set on MRSA (200 μM)) was “completely inactive” each time.
Regarding `CC1CCC(C(C)C)C(O)C1` (single isomer, unassigned; (-)) [(−)-menthol, reference compound], the “biofilm inhibition activity (in words)” value (in data set [1]; in the data set on MRSA (200 μM)) was “completely inactive” in each case.
For `CCOC(=O)NCCc1ccccc1` [Compound 2d, ethyl N-(2-phenethyl) carbamate], the “% Inhibition of biofilm formation” value with VRE was 80.2%; in the data set with MDRAB, 52.0%; in the data set with R. salexigens [2], 59.7%; in the data set with MRSA (200 μM), 68.1%; in the data set on E. coli (200 μM), 40.8%; with S. epidermidis, 63.1%. Also, the “red blood cell lysis” value in data set [3] is given as “no red blood cell lysis”. Besides, the “antibiofilm activity reported in the literature” value with R. salexigens [4] was “moderate antibiofilm activity”.
With `CC(C)[C@@H]1CC[C@@H](C)C[C@H]1OC(=O)NCCn1nccn1` [Compound 5a, (1R,2S,5R)-2-isopropyl-5-methylcyclohexyl 2-(2H-1,2,3-triazol-2-yl)ethylcarbamate], the inhibition (in general, the relative decrease from the control value, in per cent) at 200 µM in the data set on E. coli (200 μM) was greater than 80%. Besides, in the data set on E. coli, the pIC50 (usually the negative decadic logarithm of the IC50, by convention in mol/L) was 4.55.
On to `CC(C)[C@@H]1CC[C@@H](C)C[C@H]1OC(=O)NCCc1ccc(N)cc1` [Compound 8a, (1R,2S,5R)-2-isopropyl-5-methylcyclohexyl 4-aminophenethylcarbamate], for which the negative-log IC50 (pIC50) in data set [5] was 4.14; in data set [1], 4.67; in data set [6], 4.61; with MRSA, 4.30. In data set [3], the “red blood cell lysis” value was “no red blood cell lysis”. For the same compound, the inhibition at 200 µM with MRSA (200 μM) was greater than 90%.
On to `CC(C)[C@@H]1CC[C@@H](C)C[C@H]1OC(=O)NCCc1ccccn1` [Compound 9a, (1R,2S,5R)-2-isopropyl-5-methylcyclohexyl 2-(pyridin-2-yl)ethylcarbamate], for which the melting point was in the range of 59 to 63 °C. The compound also gave a pIC50 in data set [5] of 4.71. The compound also showed a pIC50 in data set [1] of 3.91. The pIC50 in data set [6] was 4.09. Further, the “red blood cell lysis” value in data set [3] is “no red blood cell lysis”. For the same compound, in the data set with MRSA (200 μM), the inhibition at 200 µM was greater than 90%. Also, the negative-log IC50 (pIC50) with MRSA is 5.31. Also, the inhibition at 200 µM in the data set on E. coli (200 μM) is greater than 80%. This compound showed a pIC50 with E. coli of 4.46.
Compound `CC(C)[C@H]1CC[C@H](C)C[C@@H]1OC(=O)NCCc1ccccn1` [Compound 9k, (1S,2R,5S)-2-isopropyl-5-methylcyclohexyl 2-(pyridin-2-yl)ethylcarbamate] gave a melting point of 57 to 59 °C. In [1], the “biofilm inhibition activity (in words)” value is on record as “identical antibiofilm properties as their enantiomers”. Also, in the data set with MRSA (200 μM), the “biofilm inhibition activity (in words)” value is “identical antibiofilm properties as their enantiomers”.

(Values after US8884022B2, “Inhibition of bacterial biofilms with aryl carbamates” (North Carolina State University, priority 2010, dated 2014).)
